The subject of series [1] is human PCSK9. Nature of the series: PCSK9 AlphaLISA assay, PCSK9 lowering in WT7 cells. Particulars: WT7 cells (Huh7 stably over-expressing human PCSK9); secreted PCSK9 by AlphaLISA; overnight incubation (16-24 h); top concentration 20 μM; read-out: Cell Based PCSK9 IC50. The source says: An in-vitro AlphaLISA assay (Perkin Elmer) was developed in order to quantitate the level of PCSK9 secreted into the cell culture media following compound treatment. To detect and measure PCSK9 protein an in-house generated anti-PCSK9 antibody was coupled to AlphaLISA acceptor beads by an external vendor (PerkinElmer) and a second internally developed anti-PCSK9 antibody with an epiptope distinct from that of the acceptor beads was biotinylated in house. Streptavidin coated-donor beads (Perkin Elmer) are also included in the assay mixture which then binds the biotinylated anti-PCSK9 antibody and in the presence of PCSK9 this donor complex and acceptor beads are brought into close proximity. […] The ability of compound to modulate PCSK9 protein levels in conditioned media by AlphaLISA was assessed in the human hepatocellular carcinoma cell line Huh7, stably over-expressing human PCSK9. […] Following plasmid transfection the stable WT7 clone was identified and maintained under Zeocin selection. Compound screening was performed in 384-well plates where WT7 cells were plated at a density of 7500 cells per well in 20 μL of tissue culture media containing compound in an eleven point, 0.5 log dilution format at a high treatment concentration of 20 μM in a final volume of 0.5% DMSO. In additional to these test compound conditions each screening plate also included wells that contained 20 μM puromycin as a positive assay control defined as high percent effect, HPE, as well as wells containing media in 0.5% DMSO as a negative treatment control defined as zero percent effect, ZPE. After overnight compound incubation (16-24 h) the tissue culture media was collected and an aliquot from each sample was transferred to individual wells of a 384-well white Optiplate (Perkin Elmer). The coupled antibodies and donor beads were added to the assay plates in a buffer composed of 30 mM Tris pH 7.4, 0.02% Tween-20 and 0.02% Casein. Anti-PCSK9 acceptor beads (final concentration of 10 μg/mL) and anti-PCSK9 biotinylated antibody (final concentration of 3 nM) were added and incubated for 30 minutes at room temperature followed by the addition of the streptavidin donor beads (final concentration 40 μg/mL) for an additional 60 minutes. Additionally a standard curve was generated where AlphaLISA reagents were incubated in wells spiked with recombinant human PCSK9 diluted in tissue culture media from 5000 ng/mL to 0.6 ng/mL. […] The test compound data were converted into percent effect, using the ZPE and HPE controls as 0% and 100% activity, respectively. The equation used for converting each well reading into percent effect was:
[formula] IC50 was then calculated and reported as the midpoint in the percent effect curve in molar units and the values are reported under the Cell Based PCSK9 IC50 (μM) column header within Table 1 Biological Data. Additionally, to monitor the selectivity of compound response for PCSK9 the level of a second secreted protein, Transferrin, was measured from the same conditioned media treated with test compound by AlphaLISA. […] To detect and quantify effects on Transferrin 0.01 mL of the culture media was transferred to a 384-well white Optiplate and 0.01 mL of media was added to bring the volume to 0.02 ml. Anti-Transferrin acceptor beads were added to a final concentration of 10 μg/mL, biotinylated anti-Transferrin at 3 nM and streptavidin donor beads at 40 μg/mL. Percent effect and IC50 for Transferrin was computed in a similar manner as that described for PCSK9.

The next series has as its system PCSK9. Briefly: PCSK9 lowering in sandwich culture human hepatocytes (SCHH). The format is cell-based. Conditions: maximum response versus vehicle. Here is the method:
Test compound in-vitro pharmacokinetic and pharmacodynamic relationships were measured in sandwich culture primary cryopreserved human hepatocytes. Within these studies SCHH cells (BD Biosciences IVT) were thawed at 37° C. then placed on ice, after which the cells were added to pre-warmed (37° C.) In VitroGRO-HT media and centrifuged at 50×g for 3 min. The cell pellet was re-suspended to 0.8×10^6 cells/mL in InVitroGRO-CP plating medium and cell viability determined by trypan blue exclusion. On day 1, hepatocyte suspensions were plated in BioCoat 96-well plates at a density of 80000 cells/well in a volume of 0.1 mL/well. After 18 to 24 hours of incubation at 37° C. in 5% CO2, cells were overlaid with ice-cold 0.25 mg/mL BD Matrigel Matrix Phenol Red-Free in incubation medium at 0.1 mL/well. Cultures were maintained at 37° C. in 5% CO2 in InVitroGRO-HI (FBS-free media), which was replaced every 24 hours and time course treatments were initiated on day 5. Prior to compound treatment cell plates were washed 3 times with 0.1 mL/well InVitroGRO-HI and 0.09 mL of media was added back in preparation for the compound additions. 1 uL of either DMSO or compound DMSO stocks at 30 mM, 10 mM, 3 mM and 1 mM were stamped into 96 well V bottom polypropylene plates. 0.099 mL of media was added to the compound plate and mixed thoroughly before the addition of 0.010 mL from the interim compound plate to the cell plate. […] At the indicated time, 0.08 mL of media was removed from the cell plates and frozen for subsequent analysis of secreted PCSK9 by AlphaLISA and for determination of drug levels in the media by liquid chromatography-tandem mass spectrometry (LC-MS/MS). The remaining media was then aspirated and the cell layers were washed 3× with ice cold Hanks Balanced Salt Solution (HBSS) under shaking conditions to remove the matrigel overlay and plates were then stored at −20° C. for subsequent determination of drug levels in the cells by LC-MS/MS. AlphaLISA determination of PCSK9 protein levels within the conditioned media was performed ultilizing the identical reagents and detection protocols described above for the WT7 cells.

For series [2], the system named is human PCSK9. Briefly: Cell Free PCSK9 Assay (PCSK9-luciferase RNA translated in HeLa cell lysate). Particulars: 30° C. for 45 minutes, luciferase readout, top concentration 100 μM. The format is biochemical. Here is the method: In order to eliminate the permeability barrier inherent to the WT7 and SCHH cell-based assays a cell-free system was also established to access compound activity. […] The construct was then in-vitro transcribed using the MEGAscript T7 Kit (Life Technologies) and RNA subsequently purified incorporating the MEGAclear Kit (Life Technologies) according to manufacturer's protocols. […] Growth was in a 50 L wavebag at a rocker speed of 25 rpm and angle 6.1 with 5% CO2 and 0.2 LPM flow rate with cells harvested at a density of 2-2.5e6/ml. Lysates additionally contained 1 tablet of Roche cOmplete-EDTA protease inhibitors per 50 ml with tris(2-carboxyethyl)phosphine (Biovectra) substituted for dithiothreitol, and were clarified by an additional final centrifugation at 10,000 rpm in a Sorvall SS34 rotor at 4° C. for 10 minutes. Compound screening was performed in 384-well plates in an eleven point, 0.5 log dilution format at a top test compound concentration of 100 μM in a final volume of 0.5% DMSO. […] Upon assay completion 1 μL from each reaction solution was removed and transferred to a second 384-well Optiplate (Perkin Elmer) containing 24 μL of SteadyGlo (Promega) and signal intensity was measured on the Envision (Perkin Elmer) using the enhanced luminescence protocol. […] The test compound data were converted into percent effect, using the ZPE and HPE controls as 0% and 100% activity, respectively, applying Equation 1 above. IC50 was then calculated and reported as the midpoint in the percent effect curve in molar units and the values are reported under the Cell Free PCSK9 IC50 (μM) column header within Table 1 Biological Data.

In the case of `CCC(OC(=O)C(C)C)n1nnc(-c2c(-c3ccc(C(=O)N(c4ncccc4C)[C@@H]4CCCNC4)cc3)cnn2C)n1` (single isomer, unassigned) [Example 53], the IC50 was above 20 µM with human PCSK9 [1] and 31.8 µM in the series with human PCSK9 [2]. The “Sandwich Culture Hepatocyte (SCHH) PCSK9 Lowering” value in the series on PCSK9 (at 6 h at 30 uM) was determined as 0% at 6 h at 30 uM.
As for `Cc1cccnc1N(C(=O)c1ccc(-c2cnn(C)c2-c2nnn(C(OC(=O)C(C)C)C(C)C)n2)cc1)[C@@H]1CCCNC1` (single isomer, unassigned) [Example 55], the IC50 with human PCSK9 [1] was above 19.2 µM; with human PCSK9 [2], 19.8 µM. Also, the “Sandwich Culture Hepatocyte (SCHH) PCSK9 Lowering” value in the series with PCSK9 (at 6 h at 30 uM) is on record as 40% at 6 h at 30 uM.
`CCOC(=O)OC(C)OC(=O)c1c(-c2ccc(C(=O)N(c3ncccc3Cl)[C@@H]3CCCNC3)cc2)cnn1C` (stereo partly drawn) [Example 8, 1-[(ethoxycarbonyl)oxy]ethyl 4-(4-{(3-chloropyridin-2-yl)[(3R)-piperidin-3-yl]carbamoyl}phenyl)-1-methyl-1H-pyrazole-5-carboxylate]: the IC50 with human PCSK9 [1] came out at 9.5 µM; in the series on human PCSK9 [2] it was 3.7 µM. Moreover, the “Sandwich Culture Hepatocyte (SCHH) PCSK9 Lowering” value with PCSK9 (at 8 h at 30 μM) came to 70% at 8 h at 30 μM.
Regarding `CCOC(=O)OC(n1nnc(-c2c(-c3ccc(C(=O)N(c4ncccc4C)[C@@H]4CCCNC4)cc3)cnn2C)n1)C(C)(C)C` (single isomer, unassigned) [Example 37], the figures for the IC50 in the series with human PCSK9 [1] and in the series on human PCSK9 [2] were above 20 µM and 22.9 µM, respectively. In the series with PCSK9 (at 6 h at 30 uM), the “Sandwich Culture Hepatocyte (SCHH) PCSK9 Lowering” value came out at 25% at 6 h at 30 uM.
For `Cc1cccnc1N(C(=O)c1ccc(-c2cnn(C)c2-c2nnn(C(OC(=O)OC(C)C)C(C)C)n2)cc1)[C@@H]1CCCNC1` (single isomer, unassigned) [Example 43] the same measures were above 20 µM, 31.9 µM and 21% at 6 h at 30 uM.
With `CCC(OC(=O)OC(C)C)n1nnc(-c2c(-c3ccc(C(=O)N(c4ncccc4C)[C@@H]4CCCNC4)cc3)cnn2C)n1` (single isomer, unassigned) [Example 40], the results for the IC50 in the series on human PCSK9 [1] and in the series on human PCSK9 [2] were above 20 µM and 18.2 µM, respectively. In addition, in the series on PCSK9 (at 6 h at 30 uM), the “Sandwich Culture Hepatocyte (SCHH) PCSK9 Lowering” value is 26% at 6 h at 30 uM.
For `Cn1ncc(-c2ccc(C(=O)N(c3nccc4ccn(C)c34)[C@@H]3CCCNC3)cc2)c1C(=O)O` [Example 12, 1-methyl-4-(4-{(1-methyl-1H-pyrrolo[2,3-c]pyridin-7-yl)[(3R)-piperidin-3-yl]carbamoyl}phenyl)-1H-pyrazole-5-carboxylic acid], the results for the IC50 with human PCSK9 [1] and with human PCSK9 [2] were above 20 µM and 1.7 µM, respectively. Besides, the “Sandwich Culture Hepatocyte (SCHH) PCSK9 Lowering” value in the series with PCSK9 (at 8 h at 30 μM) came to 36% at 8 h at 30 μM.
As to `Cc1cccnc1N(C(=O)c1ccc(-c2cnn(C)c2-c2nnn(C(C)OC(=O)C(C)C)n2)cc1)[C@@H]1CCCNC1` (single isomer, unassigned) [Example 50], the IC50 in the series with human PCSK9 [1] was above 20 µM; with human PCSK9 [2], 8.03 µM. In addition, the “Sandwich Culture Hepatocyte (SCHH) PCSK9 Lowering” value in the series with PCSK9 (at 6 h at 30 uM) stood at 37% at 6 h at 30 uM.
As for `CCOC(=O)OC(n1nnc(-c2c(-c3ccc(C(=O)N(c4ncccc4C)[C@@H]4CCCNC4)cc3)cnn2C)n1)C(C)(C)C` (single isomer, unassigned) [Example 36], the IC50 in the series on human PCSK9 [1] is above 20 µM; in the series on human PCSK9 [2], 5.43 µM. For the same molecule, in the series with PCSK9 (at 6 h at 30 uM), the “Sandwich Culture Hepatocyte (SCHH) PCSK9 Lowering” value is listed as 27% at 6 h at 30 uM.
Turning to `CCOC(=O)OC(CC)n1nnc(-c2c(-c3ccc(C(=O)N(c4ncccc4C)[C@@H]4CCCNC4)cc3)cnn2C)n1` (single isomer, unassigned) [Example 33], the half-inhibitory concentration (IC50) with human PCSK9 [1] is above 20 µM; in the series with human PCSK9 [2], 23.7 µM. In the series with PCSK9 (at 6 h at 30 uM), the “Sandwich Culture Hepatocyte (SCHH) PCSK9 Lowering” value is given as 32% at 6 h at 30 uM.
As for `CCOC(=O)O[C@@H](C)OC(=O)c1c(-c2ccc(C(=O)N(c3ncccc3Cl)[C@@H]3CCCNC3)cc2)cnn1C` [Example 15a, (1S)-1-[(ethoxycarbonyl)oxy]ethyl 4-(4-{(3-chloropyridin-2-yl)[(3R)-piperidin-3-yl]carbamoyl}phenyl)-1-methyl-1H-pyrazole-5-carboxylate], the IC50 is 7.3 µM in the series with human PCSK9 [1] and 3.1 µM in the series on human PCSK9 [2]. The “Sandwich Culture Hepatocyte (SCHH) PCSK9 Lowering” value in the series on PCSK9 (at 8 h at 30 μM) came out at 72% at 8 h at 30 μM.
Take `COC(=O)c1c(-c2ccc(C(=O)N(c3ncccc3C)[C@@H]3CCCNC3)cc2)cnn1C` [Example 13, Methyl 1-methyl-4-(4-{(3-methylpyridin-2-yl)[(3R)-piperidin-3-yl]carbamoyl}phenyl)-1H-pyrazole-5-carboxylate]: the values for the IC50 in the series on human PCSK9 [1] and in the series on human PCSK9 [2] were 2.3 µM and 0.8 µM, respectively. Further, the “Sandwich Culture Hepatocyte (SCHH) PCSK9 Lowering” value with PCSK9 (at 8 h at 30 μM) is 83% at 8 h at 30 μM.
For `Cc1cccnc1N(C(=O)c1ccc(-c2cnn(C)c2-c2nnn(C(OC(=O)OC(C)C)C(C)C)n2)cc1)[C@@H]1CCCNC1` (single isomer, unassigned) [Example 42], the results for the IC50 in the series with human PCSK9 [1] and in the series with human PCSK9 [2] were above 20 µM and 7.38 µM, respectively. The “Sandwich Culture Hepatocyte (SCHH) PCSK9 Lowering” value in the series on PCSK9 (at 6 h at 30 uM) is on record as 19% at 6 h at 30 uM.
With `CCC(OC(=O)OC(C)C)n1nnc(-c2c(-c3ccc(C(=O)N(c4ncccc4C)[C@@H]4CCCNC4)cc3)cnn2C)n1` (single isomer, unassigned) [Example 41], the IC50 in the series with human PCSK9 [1] is above 19.4 µM; with human PCSK9 [2], 15.4 µM. For the same molecule, the “Sandwich Culture Hepatocyte (SCHH) PCSK9 Lowering” value in the series on PCSK9 (at 6 h at 30 uM) is listed as 35% at 6 h at 30 uM.

The record behind these values is patent publication US9227956B2 (Pfizer Inc., priority 2013, dated 2016).
